Inhibition and protection ratio data for five compounds are collected here from patent US4416892A, “Method of treating hypersensitivity disease with benzoxazole derivatives” (Lilly Industries Limited, priority 1981, dated 1983).

One test has as its system SRS-A release. In words: guinea-pig chopped lung test (inhibition of SRS-A / mediator release). The class given is cell-based. The settings on record: Cavia porcellus, 0.25 h; 3×10^-5 M; ovalbumin-sensitised guinea pig lung, antigen challenge, 37° C., 15 mins; mean of four samples. On the procedure:
These tests are well-recognised as indicative of anti-allergy activity in humans and mammals in general. Compounds were tested in the guinea pig chopped lung test referred to above. […] Male albino guinea pigs (250-350 g) were sensitised with ovalbumin (100 mg s/c+100 mg i p.) and three weeks later killed, their lungs removed and perfused clear of blood with Tyrode's solution. The lungs were chopped into 0.5 mm cubes and divided into 400 mg aliquots. After washing and equilibration at 37° C., the aliquots were challenged with antigen in the presence or absence of the test compound. One control group was not challenged and was used to assess non-anaphylactic SRS-A release. Following incubation with rocking at 37° C. for 15 mins, each supernatant was removed and bio-assayed. Results are expressed as the percentage inhibition of SRS-A release after exposure to 3×10^-5M solutions of test compound. Each result is the mean of four samples.

A further test relates to allergic bronchospasm. In words: Herxheimer test (allergic bronchospasm in sensitised guinea pigs). The class given is in vivo, guinea pig. The note with it: dose 50 (first column; head is a drawing), oral, 4 hours before ovalbumin challenge, mepyramine 0.5 mg/kg s.c.; ratio of 1.4 or greater significant.

Description for allergic bronchospasm: Male guinea pigs were sensitised with ovalbumin and then exposed to ovalbumin aerosol (1% w/v solution) in an observation chamber. The animals were kept in the exposure chamber until symptoms of respiratory distress, terminating in a characteristic convulsive cough. The time of exposure is the "collapse time". […] Accordingly, the response to each compound in the presence of mepyramine (0.5 mg/kg s.c.) given half an hour before challenge was studied. The compound itself was given orally four hours before antigen challenge. A protection ratio of 1.4 or greater is considered significant.

For `CC(C(=O)O)c1ccc2nc(-c3ccccc3Cl)oc2c1` (stereo not drawn) [2-(2-chlorophenyl)-α-methyl-6-benzoxazoleacetic acid], the inhibition at 30 µM in the test with SRS-A release was found to be 16%. With `CC(C(=O)O)c1ccc2oc(-c3cccc(C(F)(F)F)c3)nc2c1` (stereo not drawn) [2-(3-trifluoromethylphenyl)-α-methyl-5-benzoxazoleacetic acid], the inhibition at 30 µM in the test with SRS-A release is 27%. Consider `CC(C(=O)O)c1ccc2oc(-c3ccc(Cl)cc3)nc2c1` (stereo not drawn) [2-(4-chlorophenyl)-α-methyl-5-benzoxazoleacetic acid], for which the inhibition at 30 µM in the test with SRS-A release was determined as 62%. Moreover, the protection ratio in the test with allergic bronchospasm was determined as 2.7.

For `CC(C(=O)O)c1ccc2nc(-c3ccc(Cl)cc3)oc2c1` (stereo not drawn) [2-(4-chlorophenyl)-α-methyl-6-benzoxazoleacetic acid], the inhibition at 30 µM in the test with SRS-A release is 38%. With `CC(C(=O)O)c1ccc2oc(-c3ccc(F)cc3)nc2c1` (stereo not drawn) [2-(4-fluorophenyl)-α-methyl-5-benzoxazoleacetic acid], the inhibition at 30 µM in the test on SRS-A release was 36%.
